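Grown in 96-well plates, cells were treated for 48 hours with each compound at five concentrations. Insufficient inhibition: endpoint recorded as highest concentration tested. GI50 is the concentration that inhibits growth by half.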 Calls of active or inactive are those of the source. Cut-off read from the data, not from the text of the source: active = GI50 up to about 1.1 µM and inactive = higher.

Holding throughout (experiment): NCI tumour cell line growth inhibition, 48 h
Assay [1] relates to SK-MEL-5.
Assay [2] relates to SW-620.
Assay [3] concerns HT-29.
Assay [4] concerns HCC 2998.
The subject of assay [5] is SNB-75.
For assay [6], the system named is SNB-19.
Assay [7] deals with NCI-H23.
For assay [8], the system named is 786-0.
The test system of assay [9] is HOP-62.
Assay [10] relates to HOP-92.
Assay [11] deals with LOX IMVI.
The test system of assay [12] is MOLT-4.
For assay [13], the system named is HCT-116.
Assay [14] concerns SN12C.
In assay [15] the test system is COLO 205.
The subject of assay [16] is TK-10.
In assay [17] the test system is HCT-15.
Assay [18] deals with SF-268.

With `N#Cc1ccc(/C=C(/C(=O)c2ccccc2)c2ccccc2)cc1`, the GI50 in assay [1] was 12.8 µM (inactive); in assay [2], 2.64 µM (inactive); in assay [3] it was 8.18 µM (inactive); in assay [4], 16.9 µM (inactive); in assay [5], 27.2 µM (inactive); in [6], 19.4 µM (inactive). The GI50 is 15.7 µM (inactive) in assay [7]; 10.9 µM (inactive) in assay [8]; 17.9 µM (inactive) in [9]; 14 µM (inactive) in assay [10]; 2.75 µM (inactive) in assay [11]; 2.99 µM (inactive) in [12]. Further, the GI50 was 4.18 µM (inactive) in assay [13]; 9.66 µM (inactive) in [14]; 19.6 µM (inactive) in [15]; 24 µM (inactive) in assay [16]; 12.2 µM in [17]; 15.2 µM (inactive) in assay [18].

Take `C[C@@H](N[C@H]1CCC[C@@H]1O)c1ccccc1.C[C@@H](N[C@H]1CCC[C@H]1O)c1ccccc1`: the GI50 in assay [1] was 57.7 µM (inactive); in assay [2], 61.4 µM (inactive); in [3], 38.1 µM (inactive); in assay [4] it was 65.8 µM (inactive); in [5], > 100 µM (inactive); in [6], 71.8 µM (inactive). The GI50 in [7] is > 100 µM (inactive); in assay [8] it was 70.1 µM (inactive); in [9], 51.9 µM (inactive); in assay [10], 30.7 µM (inactive); in [11], 34.4 µM (inactive); in assay [12] it was 51.5 µM (inactive). Also, the GI50 in assay [13] was 34.9 µM (inactive); in assay [14], > 100 µM (inactive); in assay [15], 75.7 µM (inactive); in assay [16], 90.4 µM (inactive); in assay [17] it was over 100 µM; in assay [18], > 100 µM (inactive).

`COC1(OC)C2(Cl)C(Cl)=C(Cl)C1(Cl)C1C=CC=CC12` (configuration not stated): the GI50 in assay [1] was 53.2 µM (inactive); in assay [2], 95.9 µM (inactive); in assay [3], 47.8 µM (inactive); in assay [4] it was 65.2 µM (inactive); in [5], 66.5 µM (inactive); in [6], > 100 µM (inactive). Moreover, the GI50 in [7] is > 100 µM (inactive); in assay [8], > 100 µM (inactive); in assay [9], > 100 µM (inactive); in assay [10] it was 40.2 µM (inactive); in assay [11], 40.2 µM (inactive); in assay [13] it was 43.5 µM (inactive). The GI50 is 75.3 µM (inactive) in assay [14]; 69.8 µM (inactive) in assay [15]; > 100 µM (inactive) in assay [16]; 54.5 µM in [17]; > 100 µM (inactive) in assay [18].

As for `O=C(O)CN1CCSc2ccccc2CN(CC(=O)O)CCSc2ccccc2C1`, the GI50 in assay [1], in assay [2], in [3], in assay [4], in assay [5] and in assay [6] was > 100 µM (inactive) in each case. Moreover, the GI50 in assay [7], in assay [8], in [9], in assay [10], in assay [11] and in assay [13] was > 100 µM (inactive) throughout. In addition, the GI50 is > 100 µM (inactive) in assay [14]; > 100 µM (inactive) in assay [15]; > 100 µM (inactive) in assay [16]; over 100 µM in assay [17]; > 100 µM (inactive) in assay [18].

`NC(=O)c1ncn2c1NCC1OC2C(O)C1O` (configuration not stated): the GI50 in [1], in assay [2], in assay [3], in assay [4], in assay [5] and in [6] was > 100 µM (inactive) throughout. The GI50 in assay [7], in assay [8], in assay [9], in assay [10], in assay [11] and in [12] was > 100 µM (inactive) each time. For the same compound, the GI50 in assay [13], in assay [14], in assay [15], in [16] and in [18] was > 100 µM (inactive) in each case.

For `C/C=C/C(=O)Oc1cccc2cccnc12`, the GI50 in assay [1] was 14.5 µM (inactive); in [2], 5.61 µM (inactive); in assay [3] it was 19.7 µM (inactive); in assay [4], 20.6 µM (inactive); in assay [5], 14.4 µM (inactive); in [6], 48.8 µM (inactive). Moreover, the GI50 is 4.91 µM (inactive) in assay [7]; 29.2 µM (inactive) in assay [8]; 26.7 µM (inactive) in [9]; 8.32 µM (inactive) in assay [10]; 9.2 µM (inactive) in assay [11]; > 20.6 µM (inactive) in [12]. The GI50 was 3.76 µM (inactive) in [13]; 5.87 µM (inactive) in assay [14]; 18.6 µM (inactive) in [15]; 44.2 µM (inactive) in assay [16]; 7 µM in [17]; 3.2 µM (inactive) in assay [18].

Consider `COc1cc(CC2c3cc(OC)c(OC)cc3CCN2C)c(Oc2cc3c(cc2OC)-c2c(OC)c(OC)c(OC)c4c2C(C3)N(C)CC4)cc1OC` (configuration not stated), for which the GI50 in [1] is 4.33 µM (inactive); in [2], 15.6 µM (inactive); in [3] it was 8.77 µM (inactive); in [4], 5.32 µM (inactive); in assay [5], 11.4 µM (inactive); in [6], 19.4 µM (inactive). The GI50 is 17.1 µM (inactive) in [7]; 8.39 µM (inactive) in assay [8]; 17.3 µM (inactive) in [9]; 6.53 µM (inactive) in assay [10]; 6.73 µM (inactive) in [11]; 4.52 µM (inactive) in [12]. The GI50 in [13] was 11.7 µM (inactive); in assay [14] it was 14 µM (inactive); in [15], 7.23 µM (inactive); in assay [16], 15.4 µM (inactive); in assay [17] it was 10.1 µM; in assay [18] it was 15 µM (inactive).

Regarding `OCC(O)COc1ccc(F)cc1` (configuration not stated), the GI50 in assay [1], in assay [2], in assay [3], in assay [4], in [5] and in assay [6] was > 100 µM (inactive) each time. The GI50 in assay [7], in assay [8], in assay [9], in assay [10], in [11] and in assay [12] was > 100 µM (inactive) throughout. Also, the GI50 in assay [13] was > 100 µM (inactive); in [14], > 100 µM (inactive); in assay [15], > 100 µM (inactive); in assay [16], > 100 µM (inactive); in assay [17], over 100 µM; in [18], > 100 µM (inactive).

On to `Cc1cccc(=O)c([O-])c1.Cc1cccc(=O)c([O-])c1.[Bi+3].[Cl-]`, for which the GI50 is 11.3 µM (inactive) in [1]; 5.47 µM (inactive) in assay [2]; 11.4 µM (inactive) in assay [3]; 11.5 µM (inactive) in assay [4]; 10 µM (inactive) in [5]; 15.5 µM (inactive) in assay [6]. For the same compound, the GI50 was 10.9 µM (inactive) in [7]; 13.7 µM (inactive) in [8]; 14 µM (inactive) in assay [9]; 6.01 µM (inactive) in assay [10]; 9.55 µM (inactive) in [11]; 5.12 µM (inactive) in [12]. Besides, the GI50 in assay [13] is 3.33 µM (inactive); in assay [14] it was 11.8 µM (inactive); in assay [16], 17.5 µM (inactive); in assay [17] it was 4.84 µM; in assay [18], 6.61 µM (inactive).

As to `CC(=O)O[C@H]1CC[C@@]2(C)C(=CC[C@H]3C4=CC=C(C(C)=O)[C@@]4(C)CCC32)C1` (some centres not stated), the GI50 in [1] was 17.7 µM (inactive); in assay [2] it was 20.9 µM (inactive); in assay [3] it was 34.4 µM (inactive); in [4], 48.4 µM (inactive); in assay [5] it was 31.1 µM (inactive); in [6], 63.8 µM (inactive). In addition, the GI50 in assay [8] was 35.5 µM (inactive); in [9] it was > 100 µM (inactive); in assay [10] it was 27.6 µM (inactive); in assay [11], 15.5 µM (inactive); in assay [12], 11.4 µM (inactive); in [13] it was 15.6 µM (inactive). Besides, the GI50 in assay [14] is 34.7 µM (inactive); in assay [15] it was 13.4 µM (inactive); in assay [16], 23.7 µM (inactive); in [17], 29.8 µM; in [18] it was 32.4 µM (inactive).

Regarding `NC(=O)CCCC(NCc1c2ccccc2nc2ccccc12)C(=O)O` (configuration not stated), the GI50 in assay [1] was 94.6 µM (inactive); in assay [2], 50.9 µM (inactive); in assay [3], 36.2 µM (inactive); in assay [4] it was 50.9 µM (inactive); in assay [5], 58.2 µM (inactive); in assay [7], 53.1 µM (inactive). In addition, the GI50 in assay [8] is 42.7 µM (inactive); in [9], > 100 µM (inactive); in [10], 27.5 µM (inactive); in assay [11] it was 30.4 µM (inactive); in assay [12] it was 17.9 µM (inactive); in [13], > 10 µM (inactive). For the same compound, the GI50 in assay [14] is 41.5 µM (inactive); in assay [15], 56.4 µM (inactive); in assay [16] it was 55 µM (inactive); in assay [17], 36.5 µM; in assay [18], 41.6 µM (inactive).
